Reference: US9120094B2, “Polymerization of bis[3-(diethoxyphosphoryl)propyl]diallylammonium chloride” (King Fahd University of Petroleum and Minerals, priority 2013, dated 2015)

Tests used:
[1] = Solubility behavior of polymers in solvents; type: physicochemical; settings: water (salt-free)
Method: After stirring a mixture of PZ 5 or PZA 7 (2 w/w %) in a solvent at 70° C. […] Table II is presented below.

[2] = Potentiometric titration for protonation (basicity) constants; type: physicochemical; settings: monomer, 0.0175M NaCl at 23° C.
Description: Procedure for the determination of the protonation constants (K1, K2 and K3) of the polyzwitterion/trianion (PZTAN) 10 (Z^±≡) and K1, K2 and K4 of its corresponding monomer ZTAN 15 (Z^±≡) by potentiometric titrations, carried out in an atmosphere of N2 in CO2-free water, is described elsewhere (Al-Muallem, H. A.; Wazeer M. I. M.; Ali, S. A. Polymer, 2002, 43, 4285—incorporated herein by reference in its entirety). A certain mmol of PZA 7 (ZH3^±) or 11 (ZH4^+) in 200 cm^3 of 0.0175 M NaCl was used in each trial (Tables 3 and 4). As the polymer was insoluble in salt-free water, it (≈100 mg) was first dissolved in 1 M NaCl (3.5 mL) and then diluted to 200 mL to make the polymer solution in 0.0175 M NaCl. For the sake of comparison the NaCl strength of water-soluble monomer 11 was also kept at 0.0175 M.
The Log K1, Log K2 and Log K3 of the respective protonation of ^2−O3P—X^+—PO3^2− [in (±≡) PZTAN 10], ^2O3P—X^+—PO3H^− [in (±=) (PZDAN) 9] and ^−HO3P—X^+—PO3H^− [(in (±−) plyzwitterion/anion (PZAN) 8] were calculated at each pH value by the Henderson-Hasselbalch eq 2 (Scheme 2) where the degree of protonation (α) is the ratios [ZH^±=]eq/[Z]o, [ZH2^±−]eq/[Z]o and [ZH3^±]eq/[Z]o, respectively. The [ZH^±=]eq, [ZH2^±−]eq and [ZH3^±]eq represent the respective equilibrium concentrations of the first (9), second (8) and third protonated species (7) whereas [Z]o describes the initial concentration of repeating units.
For the determination of the third step [8 (ZH2^±−)+H^+⇄7 (ZH3^±)] protonation constant (log K3) using the titration of PZA 7 [ZH3^±] with NaOH, α represents the ratio [ZH3^±]eq/[Z]o whereby [Z]o and [ZH3^±]eq are related by [ZH3^±]eq=[Z]o—COH^−—[H^+]+[OH^−], where COH^− represent the added NaOH concentration. The equilibrium [H^+] and [OH^−] values were calculated from the pH value. Continuing the titration, the second step [9 (ZH^±=)+H^+⇄8 (ZH2^±−)] protonation constant (log K2) was determined using volume of the titrant after deducting the equivalent volume from the total volume. […]

Solubility in words [1]	Log Ki^o (log K4) ([2]; fourth step 12 (ZH3±) to 11 (ZH4+), approximate, 2[Z]o used)	Log Ki^o (log K2) ([2]; second step protonation)	Log Ki^o (log K1) ([2]; titration of 11 (ZH4+) with NaOH, first step protonation of 15)	Compound
water-soluble				C=CC[N+](CC=C)(CCCP(=O)(O)O)CCCP(=O)(O)O.[Cl-] [compound 11]
	2.30	7.43	9.78	C=CC[N+](CC=C)(CCCP(=O)([O-])[O-])CCCP(=O)([O-])[O-].[Na+].[Na+].[Na+] [compound 15]
